Reference: PubChem BioAssay AID256 (DTP/NCI, 2004)
Toxic doses and inconclusive results are not listed. How the source made its calls: active means survival T/C of 150% or more; inactive means T/C below 125% in these data.

Tested on: CD2F1 mice, L1210 leukemia ip, survival T/C
Assay: NCI In Vivo Anticancer Drug Screen. Data for tumor model L1210 Leukemia (intraperitoneal) in CD2F1 (CDF1) mice
Conditions: higher = longer survival
Method in brief: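 Activity against a transplanted murine tumor was judged by comparing the compound group with a vehicle group. The outcome in the treated animals was divided by that in the controls.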

[1] = endpoint: mean survival time, dose: 100.0 mg/kg/injection, schedule: Q04DX003 (ip), vehicle: saline with Tween-80
[2] = endpoint: mean survival time, dose: 200.0 mg/kg/injection, schedule: Q04DX003 (ip), vehicle: saline with Tween-80
[3] = endpoint: mean survival time, dose: 400.0 mg/kg/injection, schedule: Q04DX003 (ip), vehicle: saline with Tween-80

Measured: T/C

Cn1cc(C2OC(CO)C(O)C2O)c(=O)[nH]c1=O (configuration not stated)
inactive: endpoint: mean survival time, dose: 12.5 mg/kg/injection, schedule: Q01DX005 (ip), vehicle: water 97 % of control | endpoint: mean survival time, dose: 25.0 mg/kg/injection, schedule: Q01DX005 (ip), vehicle: water 103 % of control | endpoint: mean survival time, dose: 50.0 mg/kg/injection, schedule: Q01DX005 (ip), vehicle: water 103 % of control | endpoint: mean survival time, dose: 100.0 mg/kg/injection, schedule: Q01DX005 (ip), vehicle: water 100 % of control | endpoint: mean survival time, dose: 200.0 mg/kg/injection, schedule: Q01DX005 (ip), vehicle: water 103 % of control

Nc1ncnc2c1c1cncnc1n2C1OC(CO)C(O)C1O (configuration not stated)
inactive: endpoint: mean survival time, dose: 12.5 mg/kg/injection, schedule: Q01DX005 (ip), vehicle: distilled water + Tween-80 96 % of control | endpoint: mean survival time, dose: 25.0 mg/kg/injection, schedule: Q01DX005 (ip), vehicle: distilled water + Tween-80 98 % of control | endpoint: mean survival time, dose: 50.0 mg/kg/injection, schedule: Q01DX005 (ip), vehicle: distilled water + Tween-80 93 % of control | endpoint: mean survival time, dose: 100.0 mg/kg/injection, schedule: Q01DX005 (ip), vehicle: distilled water + Tween-80 90 % of control | endpoint: mean survival time, dose: 200.0 mg/kg/injection, schedule: Q01DX005 (ip), vehicle: distilled water + Tween-80 105 % of control | endpoint: mean survival time, dose: 400.0 mg/kg/injection, schedule: Q01DX005 (ip), vehicle: distilled water + Tween-80 110 % of control

CN(C)N=Nc1ccc(C#N)cc1C(N)=O
inactive: endpoint: mean survival time, dose: 18.8 mg/kg/injection, schedule: Q01DX009 (ip), vehicle: Klucel (hydroxypropylcellulose) (HPC) 106 % of control | endpoint: mean survival time, dose: 37.5 mg/kg/injection, schedule: Q01DX009 (ip), vehicle: Klucel (hydroxypropylcellulose) (HPC) 119 % of control | endpoint: mean survival time, dose: 150.0 mg/kg/injection, schedule: Q01DX009 (ip), vehicle: Klucel (hydroxypropylcellulose) (HPC) 101 % of control

C/C=C1/CC2C=Nc3cc(O)c(OC)cc3C(=O)N2C1 (configuration not stated)
inactive: endpoint: median survival time, dose: 0.02 mg/kg/injection, schedule: Q01DX005 (ip), vehicle: DMSO 100 % of control | endpoint: median survival time, dose: 0.04 mg/kg/injection, schedule: Q01DX005 (ip), vehicle: DMSO 101 % of control | endpoint: median survival time, dose: 0.08 mg/kg/injection, schedule: Q01DX005 (ip), vehicle: DMSO 104 % of control | endpoint: median survival time, dose: 0.16 mg/kg/injection, schedule: Q01DX005 (ip), vehicle: DMSO 113 % of control | endpoint: median survival time, dose: 0.32 mg/kg/injection, schedule: Q01DX005 (ip), vehicle: DMSO 121 % of control

O=Cc1c2ccc(Cl)cc2nc2cc(Cl)ccc12
inactive: [1] 112 % of control | [2] 93 % of control | [3] 102 % of control

Cc1ccc(NC(=O)CCl)cc1C
inactive: endpoint: mean survival time, dose: 100.0 mg/kg/injection, schedule: Q01DX009 (ip), vehicle: saline with Tween-80 100 % of control | [1] 96 % of control | endpoint: mean survival time, dose: 200.0 mg/kg/injection, schedule: Q01DX009 (ip), vehicle: saline with Tween-80 97 % of control | [2] 95 % of control | [3] 93 % of control
